The text below walks through data of paper PMC10794370, “Impact of plastic-related compounds on the gene expression signature of HepG2 cells transfected with CYP3A4” (Archives of Toxicology, 2023).

Format in all cases: cell-based
Data set [1] can be described thus: Cytotoxicity (resazurin) growth inhibition assay. The settings on record: human. As for the experimental part:
The cytotoxicity of six compounds selected from in-silico screening was analyzed through a resazurin assay. Aliquots of 10^4 CYP3A4-overexpressing HepG2 cells were seeded per well into 96-well plates. Cells were treated with different concentrations of the selected compounds ranging from 0.003 to 100 µM in a total volume of 200 µL for 72 h. Then, 20 µL/well of resazurin 0.01% w/v (Sigma Aldrich, Taufkirchen, Germany) was added. The fluorescence intensity was measured with the Infinite M200 Pro-plate reader (Tecan, Crailsheim, Germany). Dose–response curves were generated from three independent experiments for each compound and 50% inhibition concentrations (IC50) were calculated. The analysis was represented using Prism 6 GraphPad Software (La Jolla, CA, USA).
A general note: The colour change of resazurin is a common sign of viable cells or microbes.

Data set [2] concerns CYP3A4-overexpressing HepG2 cells. The experiment in a line: RNA-sequencing and gene set enrichment analysis. The following applies: IC50 concentration, 24 h; for number of 'DNA-templated DNA replication' genes influenced by only one compound: Venn diagram; for activated pathway (gene set enrichment, GO Biological Process) / number of genes affected in 'nuclear chromosome segregation' pathway / number of genes involved in 'inflammatory response' pathway / number of genes targeted in 'DNA-templated DNA replication' pathway / suppressed pathway (gene set enrichment, GO Biological Process): vs DMSO control. As for the experimental part: Aliquots of 5 × 10^5 CYP3A4-overexpressing HepG2 cells were seeded into six-well-plates 24 h before treatment. Cells were treated with previously calculated IC50 concentrations of the compounds of interest. Control (ctrl) cells were treated with 0.2% DMSO. After 24 h incubation, the cells were harvested. RNA extraction was performed with the […] RNA Mini Kit (Invitek Molecular GmbH, Berlin, Germany), according to the manufacturer's instruction. Briefly, the cell pellet was lysed with 350 μL Lysis Solution and treated with β-mercaptoethanol. […] After several washing steps, RNA was eluted with 60 μL of Elution Buffer R and the concentration and purity measured with NanoDrop. Next-generation sequencing was conducted by […] GmbH, Mainz, Germany. The quality of the extracted RNA was verified by the company with a 2100 Bioanalyzer system (Agilent Technologies, CA, USA). After mRNA isolation and library preparation using the NEBNext^© UltraTM II Directional RNA Library Prep Kit (New England Biolabs, MA, USA), RNA sequencing of around 25 mio PE reads (2 × 12.5 M reads, 2 × 150 nt) was performed with the Illumina NextSeq 2000TM system. Each treatment and control group included two replicates. Quality control on the sequencing data was performed with the FastQC tool (0.12.0, https://www.bioinformatics.babraham.ac.uk/projects/fastqc/). Transcript abundance estimates were computed with Salmon (version 1.5.0) (Patro et al. [2017]) with a transcriptome index generated from the GENCODE (version 38), and subsequently summarized to gene level with the […] package (version 1.16.0) (Love et al. [2020]). The exploration, modelling, and interpretation of the expression data followed previously described protocols (Ludt et al. [2022]). Exploratory data analysis was executed with the pcaExplorer package (version 2.24.0) (Marini and Binder [2019]). Differential expression analysis was performed with DESeq2 package (version 1.38.3) (Love et al. [2014]), setting the false discovery rate (FDR) cutoff to 0.05. Accurate estimation of the effect sizes (described as log2 fold change) was finalized using the […] shrinkage estimator (version 1.20.0) (Zitovsky and Love [2020]). Subsequent analyses included Gene Ontology pathway enrichment by topGO (version 2.50.0) (Alexa et al. [2006])-using all expressed genes as background dataset and the ideal package (version 1.22.0) (Ludt et al. [2022])-and by clusterProfiler (version 4.6.0) (Wu et al. [2021]) with default settings using the log fold change as input. […] [2021]). Gene expression profiles were plotted as heatmaps (color-coded standardized Z scores for the expression values, after variance stabilizing transformation) to simplify comparison across samples.

For data set [3] the test system is unchanged. Nature of the data set: Flow cytometric cell cycle analysis. The settings on record: IC50 concentration, 24 h; for S-phase cells population: control 12.47 ± 0.83%; for cells in G2/M phase: control 18.70 ± 0.69%. As for the experimental part:
After 24 h of incubation, cells were fixed with ethanol and stored at −20 °C overnight. […] The measurement was performed using a BD LSRFortessa™ Cell Analyzer (Becton–Dickinson, Heidelberg, Germany). The results were analyzed using FlowJo software (Celeza, Olten, Switzerland).
On the technique in general: A flow cytometer gives signals particle by particle.

Where [4] appears, read: 72 h, resazurin, mean ± SD of three independent experiments, read-out: IC50.
Setting [5] is: CYP3A4-overexpressing HepG2 cells, 72 h, resazurin, mean ± SD of three independent experiments, read-out: IC50.

“Also recorded” adds a separate entry of the source. Read-outs that look alike come from different tables or passages of the source.

On to `O=C(OC1CCCCC1)c1ccccc1C(=O)OC1CCCCC1` [compound 1, dicyclohexyl phthalate], for which the IC50 at 72 h in data set [1] (setting [4]) turned out to be 72.7 µM.
The same measure, in the same setting: then `CC(C)COC(=O)c1ccccc1C(=O)OCC(C)C` [compound 2, diisobutyl phthalate], with greater than 100 µM.
In the case of `CC(C)(C)CC(C)(C)c1ccc(O)c(-n2nc3ccccc3n2)c1` [compound 3, octrizole], the IC50 at 72 h in data set [1] (setting [5]) worked out at 63.8 ± 2.21 µM.
For the molecule `Cc1cc(Cc2cc(C)cc(C(C)(C)C)c2O)c(O)c(C(C)(C)C)c1` [compound 4, 2,2′-methylene bis(6-tert-butyl-4-methylphenol)], in data set [2], the “number of 'DNA-templated DNA replication' genes influenced by only one compound” value (“number … by only one compound” below) is recorded as 10 genes; the “activated pathway (gene set enrichment, GO Biological Process)” value was “icosanoid metabolic process; also recorded: anion transport; also recorded: response to metal ions; also recorded: regulation of growth; also recorded: response to cytokines; also recorded: inflammatory response”; the “number of genes affected in 'nuclear chromosome segregation' pathway” value was found to be 103 genes; the “number of genes involved in 'inflammatory response' pathway” value came to 76 genes. In data set [2], the “number of genes targeted in 'DNA-templated DNA replication' pathway” value (“number of genes targeted” for short) was 78 genes and the “suppressed pathway (gene set enrichment, GO Biological Process)” value is on record as “regulation of chromosome segregation; also recorded: regulation of mitotic sister chromatid separation; also recorded: nuclear chromosome segregation; also recorded: chromosome organization; also recorded: metaphase/anaphase transition of mitotic cell cycle; also recorded: response to vitamin”. In data set [3], the S-phase cells population is given as 6.26 ± 1.31% and the “cells in G2/M phase” value is recorded as 26.70 ± 8.40%. This molecule gave a 50% inhibitory concentration (IC50) at 72 h in data set [1] of 17.4 µM.
On to `CC(c1cc(C(C)(C)C)cc(C(C)(C)C)c1O)c1cc(C(C)(C)C)cc(C(C)(C)C)c1O` [compound 5, 1,1-bis(3,5-di-tert-butyl-2-hydroxyphenyl)ethane], for which, in data set [2], the “number … by only one compound” value is reported as 8 genes; the “activated pathway (gene set enrichment, GO Biological Process)” value was “autophagy; also recorded: process utilizing autophagic mechanism; also recorded: response to endoplasmic reticulum stress; also recorded: cytokine production; also recorded: Golgi vesicle transport; also recorded: response to growth factors; also recorded: cellular response to growth factor stimulation”; the “number of genes targeted” value stood at 68 genes; the “suppressed pathway (gene set enrichment, GO Biological Process)” value is “cholesterol metabolic process; also recorded: cholesterol biosynthetic process; also recorded: secondary alcohol biosynthetic process; also recorded: sterol metabolic process; also recorded: alcohol metabolic process; also recorded: small molecule metabolic process; also recorded: organic hydroxy compound metabolic process”. For the same molecule, in data set [3], the S-phase cells population is reported as 10.88 ± 3.84% and the “cells in G2/M phase” value is given as 25.13 ± 2.25%. Besides, the IC50 at 72 h in data set [1] (setting [5]) was 20 ± 1.68 µM.
As for `Cc1cc(Cc2cc(C)cc(C3CCCCC3)c2O)c(O)c(C2CCCCC2)c1` [compound 6, 2,2′-methylene bis(6-cyclohexyl-4-methylphenol)], in data set [2], the “number … by only one compound” value came to 5 genes; the “activated pathway (gene set enrichment, GO Biological Process)” value was “response to nutrients levels; also recorded: regulation of extent of growth; also recorded: response to wounding; also recorded: inflammatory response; also recorded: cytokine production”; the “number of genes affected in 'nuclear chromosome segregation' pathway” value is recorded as 83 genes; the “number of genes involved in 'inflammatory response' pathway” value was determined as 90 genes. Moreover, in data set [2], the “number of genes targeted” value is listed as 72 genes and the “suppressed pathway (gene set enrichment, GO Biological Process)” value is on record as “regulation of chromosome segregation; also recorded: regulation of mitotic sister chromatid separation; also recorded: nuclear chromosome segregation; also recorded: chromosome organization”. Further, in data set [3], the S-phase cells population was determined as 7.06 ± 5.94% and the “cells in G2/M phase” value is 25.77 ± 0.95%. Moreover, the concentration for half-maximal inhibition (IC50) at 72 h in data set [1] (setting [5]) was 18 ± 1.21 µM.

As a reminder, the IC50 is the concentration that gives 50% inhibition.
